Experimental data from paper PMC5577582 (Toxins, 2017).
Positions of bridges follow the written chain, without caps; N, C: chain ends. Residues, ends and D or L forms follow the SMILES beside them.

How the values were obtained:
[1] = Human serum isolated from male AB plasma; settings: 37 °C, up to 24 h
[2] = phosphate buffer adjusted to pH 12; settings: 37 °C, up to 24 h
[3] = assay type: physicochemical; settings: peptide 1 mg/mL in 9:1 v/v H2O/D2O, heated 20 to 80 °C, 500 MHz 1D 1H NMR
Method: A Bruker 500 MHz Avance nuclear magnetic resonance (NMR) spectrometer was used to heat the peptides (1 mg/mL in 9:1 v/v H2O/D2O) and to monitor structural changes at temperatures ranging from 20 to 80 °C. One-dimensional (1D) ^1H NMR spectra and two-dimensional (2D) nuclear Overhauser effect spectroscopy (NOESY) (200 ms mixing time) spectra were acquired and processed using TopSpin 3.5 (Bruker, Billerica, MA, USA) and CCPNMR Analysis 2.4.1 was used in the assignment of the NOE spectra.

[4] = 30 μM peptide, 24 h; for Degradation at pH 12: phosphate buffer pH 12, 37 °C, RP-HPLC trace compared to pH 4
[5] = assay type: physicochemical; settings: 100 °C in water for 30 min, heating block, cooled to 25 °C, C18 RP-HPLC at 215 nm, MALDI-MS of the products

Molecule	not cleaved [1]	1D 1H NMR spectral changes at 80 °C [3]	also measured
DCLGFLWKCNPSNDKCCRPNLVCSRKDKWCKYQI	more than 90% peptide remaining after a 24 h incubation		cleaved bond [2]: Q-Ile34, 24 h
ECLEIFKACNPSNDQCCKSSKLVCSRKTRWCKYQI*	more than 90% peptide remaining after a 24 h incubation		
DCLGFMRKCIPDNDKCCRPNLVCSRTHKWCKYVF*	more than 90% peptide remaining after a 24 h incubation		
CC[C@H](C)[C@H](NC(=O)[C@H](CCC(=O)O)NC(=O)[C@H](Cc1ccc(O)cc1)NC(=O)[C@H](CCCCN)NC(=O)[C@@H]1CSSC[C@@H]2NC(=O)[C@H](CCC(N)=O)NC(=O)[C@H](CC(=O)O)NC(=O)[C@H](CC(N)=O)NC(=O)[C@H](CO)NC(=O)[C@@H]3CCCN3C(=O)[C@H](CC(N)=O)NC(=O)[C@@H]3CSSC[C@H](NC(=O)[C@H](C(C)C)NC(=O)[C@H](CC(C)C)NC(=O)[C@H](CC(N)=O)NC(=O)[C@H](CO)NC(=O)[C@H](CO)NC(=O)[C@H](CCCCN)NC(=O)[C@H](CSSC[C@H](NC(=O)[C@@H](N)CCC(=O)O)C(=O)N[C@@H](CC(C)C)C(=O)NCC(=O)N[C@@H](Cc4ccccc4)C(=O)NCC(=O)N[C@@H](CCCCN)C(=O)NCC(=O)N3)NC2=O)C(=O)N[C@@H](CO)C(=O)N[C@@H](CCCNC(=N)N)C(=O)N[C@@H](CCCCN)C(=O)N[C@@H](Cc2c[nH]cn2)C(=O)N[C@@H](CCCNC(=N)N)C(=O)N[C@@H](Cc2c[nH]c3ccccc23)C(=O)N1)C(N)=O [HnTx-IV]		peak broadening and loss of intensity	Degradation at pH 12 [4]: completely degraded
CC(C)C[C@@H]1NC(=O)[C@H](Cc2c[nH]cn2)NC(=O)[C@H](CCCCN)NC(=O)[C@@H]2CSSC[C@H](NC(=O)[C@@H](N)[C@@H](C)O)C(=O)N[C@@H](CCCNC(=N)N)C(=O)N[C@@H](Cc3ccc(O)cc3)C(=O)N[C@@H](CC(C)C)C(=O)N[C@@H](Cc3ccccc3)C(=O)NCC(=O)NCC(=O)N[C@H]3CSSC[C@H](NC(=O)[C@H](C)NC1=O)C(=O)N[C@@H](CCCNC(=N)N)C(=O)N[C@@H](CO)C(=O)N[C@@H](CC(=O)O)C(=O)NCC(=O)N[C@@H](CCCCN)C(=O)N[C@@H](Cc1ccc(O)cc1)C(=O)N[C@H](C(=O)N[C@@H](C)C(=O)N[C@@H](Cc1c[nH]c4ccccc14)C(=O)N[C@@H](CC(=O)O)C(=O)NCC(=O)N[C@H](C(=O)N[C@@H](Cc1ccccc1)C(=O)O)[C@@H](C)O)CSSC[C@H](NC(=O)[C@H](CC(=O)O)NC(=O)[C@H](C)NC(=O)[C@H]([C@@H](C)O)NC(=O)[C@H]([C@@H](C)O)NC(=O)[C@H](CCCCN)NC3=O)C(=O)N2 [SgTx-1]		peak broadening and loss of intensity	Loss of peptide at pH 2 ([4]; phosphate buffer pH 2, 37 °C, RP-HPLC relative to pH 4): small loss of peptide; Analytical RP-HPLC trace after boiling [5]: minor degradation product; Mass loss of degradation product from native peptide after boiling: 18 Da
ECLGFGKGCNPSNDQCCKSSNLVCSRKHRWCKYEI*	more than 90% peptide remaining after a 24 h incubation		
CC[C@H](C)[C@H](NC(=O)[C@H](CCC(N)=O)NC(=O)[C@H](Cc1ccc(O)cc1)NC(=O)[C@H](CCCCN)NC(=O)[C@@H]1CSSC[C@@H]2NC(=O)[C@H](CCCCN)NC(=O)[C@H](CC(=O)O)NC(=O)[C@H](CC(N)=O)NC(=O)[C@H](CO)NC(=O)[C@@H]3CCCN3C(=O)[C@H](CC(N)=O)NC(=O)[C@@H]3CSSC[C@H](NC(=O)[C@H](C(C)C)NC(=O)[C@H](CC(C)C)NC(=O)[C@H](CC(N)=O)NC(=O)[C@@H]4CCCN4C(=O)[C@H](CCCNC(=N)N)NC(=O)[C@H](CSSC[C@H](NC(=O)[C@@H](N)CC(=O)O)C(=O)N[C@@H](CC(C)C)C(=O)NCC(=O)N[C@@H](Cc4ccccc4)C(=O)N[C@@H](CC(C)C)C(=O)N[C@@H](Cc4c[nH]c5ccccc45)C(=O)N[C@@H](CCCCN)C(=O)N3)NC2=O)C(=O)N[C@@H](CO)C(=O)N[C@@H](CCCNC(=N)N)C(=O)N[C@@H](CCCCN)C(=O)N[C@@H](CC(=O)O)C(=O)N[C@@H](CCCCN)C(=O)N[C@@H](Cc2c[nH]c3ccccc23)C(=O)N1)C(=O)O [PaurTx-3] (H-DCLGFLWKCNPSNDKCCRPNLVCSRKDKWCKYQI-OH; disulfide 2-17, 9-23, 16-30)		maintained narrow peaks but also showed some loss in intensity	Degradation at pH 12 [4]: larger proportion of the folded peptide remaining
